Where a name gives a salt, the structure may show the parent alone.
Tests used:
[1] = target: T1, human B1R receptor (bradykinin 1 receptor) (Homo sapiens, UniProt P46663); assay: FLIPR Ca2+ assay (Fluo-4) on CHO K1 cells stably transfected with the human B1R gene; % activation and % inhibition at 10 μM; assay type: cell-based; settings: CHO K1 hB1R cells, Ca2+ inflow after 0.5 nM Lys-Des-Arg9-bradykinin; for inhibition at 10 µM: CHO-K1, test substance 10 μM, read-out: B1R antagonism, human [10 μM] % inhibition; for B1R antagonism, human [10 μM] % inhibition: test substance 10 μM
T1 construct: host or cells: CHO K1 cells (hB1R cells)
T1 sequence (P46663 1-353): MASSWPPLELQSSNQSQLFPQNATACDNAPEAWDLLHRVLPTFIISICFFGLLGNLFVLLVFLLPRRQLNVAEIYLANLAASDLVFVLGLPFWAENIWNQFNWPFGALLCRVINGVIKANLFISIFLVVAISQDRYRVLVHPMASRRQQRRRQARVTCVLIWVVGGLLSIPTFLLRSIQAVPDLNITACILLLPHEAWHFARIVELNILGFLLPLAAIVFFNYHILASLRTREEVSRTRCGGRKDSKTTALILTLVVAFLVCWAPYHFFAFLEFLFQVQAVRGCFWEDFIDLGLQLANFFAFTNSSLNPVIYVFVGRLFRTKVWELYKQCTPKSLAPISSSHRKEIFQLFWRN
Summary of the method: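 Fluo-4 Ca2+ flux on FLIPR in stable hB1R or rB1R CHO K1 lines, two additions. Agonism: 10 µM compound versus 0.5 nM Lys-Des-Arg9-BK (human) or 100 nM Des-Arg9-BK (rat); antagonism: same agonists applied 10 min later, suppression expressed against maximum achievable inhibition.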

[2] = target: T2, B1R receptor of the rat (bradykinin 1 receptor) (Rattus norvegicus, UniProt P97583); assay: FLIPR Ca2+ assay (Fluo-4) on CHO K1 cells stably transfected with the B1R gene of the rat; % activation and % inhibition at 10 μM; assay type: cell-based; settings: CHO K1 rB1R cells, Ca2+ inflow after 100 nM Des-Arg9-bradykinin; for inhibition at 10 µM: CHO-K1, test substance 10 μM, read-out: B1R antagonism, rat [10 μM] % inhibition; for B1R antagonism, rat [10 μM] % inhibition: test substance 10 μM
T2 construct: host or cells: CHO K1 cells (rB1R cells)
T2 sequence (P97583 1-337): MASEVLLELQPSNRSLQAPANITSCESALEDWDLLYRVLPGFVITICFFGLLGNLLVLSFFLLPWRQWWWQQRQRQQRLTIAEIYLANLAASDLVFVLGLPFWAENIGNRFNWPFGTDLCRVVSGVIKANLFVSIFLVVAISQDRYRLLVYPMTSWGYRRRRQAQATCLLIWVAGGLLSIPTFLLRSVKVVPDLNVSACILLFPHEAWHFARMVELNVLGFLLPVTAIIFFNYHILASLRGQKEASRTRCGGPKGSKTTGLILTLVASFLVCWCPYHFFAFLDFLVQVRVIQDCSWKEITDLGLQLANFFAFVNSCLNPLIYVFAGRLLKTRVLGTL
Protocol: The agonistic or antagonistic action of substances can be quantified on the bradykinin receptor 1 (B1R) of the species human and rat with ectopically expressing cell lines (CHO K1 cells) and with the aid of a Ca^2+-sensitive dye (Fluo-4) using a fluorescent imaging plate reader (FLIPR). The indication in % activation is based on the Ca^2+ signal after addition of Lys-Des-Arg^9-bradykinin (0.5 nM) or Des-Arg^9-bradykinin (100 nM). Antagonists result in a suppression of the Ca^2+ influx following administration of the agonist. The % inhibition in comparison with the maximum achievable inhibition is indicated.
Functional Investigation on the Bradykinin 1 Receptor (B1R)
The agonistic or antagonistic action of substances can be determined on the bradykinin 1 receptor (B1R) of the human and rat species with the following assay. According to this assay, the Ca^2+ inflow through the channel is quantified with the aid of a Ca^2+-sensitive dyes (Fluo-4 type, Molecular Probes Europe BV, Leiden, The Netherlands) in a fluorescent imaging plate reader (FLIPR, Molecular Devices, Sunnyvale, USA).
Chinese Hamster Ovary cells (CHO K1 cells) which are stably transfected with the human B1R gene (hB1R cells, Euroscreen s.a., Gosselies, Belgium) or the B1R gene of the rat (rB1R cells, Axxam, Milan, Italy) are used. For functional investigations, these cells are plated-out on black 96-well plates with a clear base (BD Biosciences, Heidelberg, Germany) in a density of 20,000-25,000 cells/well. Overnight, the cells are incubated at 37° C. and 5% CO2 in culture medium (hB1R cells: Nutrient Mixture Ham's F12, Gibco Invitrogen GmbH, Karlsruhe, Germany; rB1R cells: D-MEM/F12, Gibco Invitrogen, Karlsruhe, Germany) with 10 vol. % FBS (foetal bovine serum, Gibco Invitrogen GmbH, Karlsruhe, Germany). On the following day, the cells are loaded with 2.13 μM Fluo-4 (Molecular Probes Europe BV, Leiden, The Netherlands) in HBSS buffer (Hank's buffered saline solution, Gibco Invitrogen GmbH, Karlsruhe, Germany) […] (Sigma-Aldrich, Taufkirchen, Germany) and 10 mM HEPES (Sigma-Aldrich, Taufkirchen, Germany) for 60 min at 37° C. The plates are subsequently washed 2× with HBSS buffer, and HBSS buffer which additionally contains 0.1% BSA (bovine serum albumin; Sigma-Aldrich, Taufkirchen, Germany), 5.6 mM glucose and 0.05% gelatine (Merck KGaA, Darmstadt, Germany) is added. After a further incubation of 20 minutes at room temperature, the plates are inserted into the FLIPR for Ca^2+ measurement. The Ca^2+-dependent fluorescence is measured here before and after addition of substances (λex=488 nm, λem=540 nm). The quantification is effected by measurement of the highest fluorescence intensity (FC, fluorescence counts) over time.
The FLIPR protocol comprises 2 additions of substance. Test substances (10 μM) are first pipetted on to the cells and the Ca^2+ inflow is compared with the control (hB1R: Lys-Des-Arg^9-bradykinin 0.5 nM; rB1R: Des-Arg^9-bradykinin 100 nM). The value in % activation based on the Ca^2+ signal after addition of Lys-Des-Arg^9-bradykinin (0.5 nM) or Des-Arg^9-bradykinin (100 nM) is obtained therefrom. After incubation for 10 minutes, 0.5 nM Lys-Des-Arg^9-bradykinin (hB1R) or 100 nM Des-Arg^9-bradykinin (rB1R) are applied and the inflow of Ca^2+ is likewise determined. Antagonists lead to a suppression of the Ca^2+ inflow. % inhibition compared with the maximum inhibition which can be achieved is calculated. The compounds show a good activity on the human and on the rat receptor. The following data were determined by way of example: […]

Row | Structure (SMILES) | inhibition at 10 µM [1] [%] | inhibition at 10 µM [2] [%] | also measured
1 | COc1cc(C)c(S(=O)(=O)N(CCOCC(=O)N2CCC(O)(c3cccnc3)CC2)C2CC2)c(C)c1 [Example 139, N-cyclopropyl-N-(2-(2-(4-hydroxy-4-(pyridin-3-yl)piperidin-1-yl)-2-oxoethoxy)ethyl)-4-methoxy-2,6-dimethylphenylsulfonamide] | 104 | 101 | –
2 | O=C(COCC1CCc2ccccc2N1S(=O)(=O)c1ccc(Cl)c(Cl)c1)N1CCC(O)(c2ccncc2)CC1 (stereo not drawn) [Example 147, 2-((1-(3,4-dichlorophenylsulfonyl)-1,2,3,4-tetrahydroquinolin-2-yl)methoxy)-1-(4-hydroxy-4-(pyridin-4-yl)piperidin-1-yl)ethanone] | 53.9 | 93.3 | –
3 | COc1cc(C)c(S(=O)(=O)N2CCCCC2COCC(=O)N2CCC(O)(c3ccccc3)CC2)c(C)c1 (stereo not drawn) [Example 244, 1-(4-hydroxy-4-phenylpiperidin-1-yl)-2-((1-(4-methoxy-2,6-dimethylphenylsulfonyl)piperidin-2-yl)methoxy)ethanone] | 105 | 99.3 | –
4 | Cc1cc(C)c(S(=O)(=O)N2Cc3ccccc3CC2COCC(=O)N2CCC(O)(Cc3ccccc3)CC2)c(C)c1 (stereo not drawn) [Example 201, 1-(4-benzyl-4-hydroxypiperidin-1-yl)-2-((2-(mesitylsulfonyl)-1,2,3,4-tetrahydroisoquinolin-3-yl)methoxy)ethanone] | 14.9 | 80 | –
5 | COc1cc(C)c(S(=O)(=O)N2CCCC2COCC(=O)N2CCC(O)(c3cccs3)CC2)c(C)c1 (stereo not drawn) [Example 239, 1-(4-hydroxy-4-(thiophen-2-yl)piperidin-1-yl)-2-((1-(4-methoxy-2,6-dimethylphenylsulfonyl)pyrrolidin-2-yl)methoxy)ethanone] | 105 | 98.9 | –
6 | COc1cc(C)c(S(=O)(=O)N(C)CCOCC(=O)N2CCC(O)(c3cccnc3)CC2)c(C)c1 [Example 3, N-(2-(2-(4-hydroxy-4-(pyridin-3-yl)piperidin-1-yl)-2-oxoethoxy)ethyl)-4-methoxy-N,2,6-trimethylphenylsulfonamide hydrochloride] | – | – | B1R antagonism, human [10 μM] % inhibition ([1]; hydrochloride): 102.19%; B1R antagonism, rat [10 μM] % inhibition ([2]; hydrochloride): 103.06%
7 | Cc1cc(S(=O)(=O)N2CCCCC2CCC(=O)N2CCC(O)(c3cccnc3)CC2)c(C)cc1Cl (stereo not drawn) [Example 122, 3-(1-(4-chloro-2,5-dimethylphenylsulfonyl)piperidin-2-yl)-1-(4-hydroxy-4-(pyridin-3-yl)piperidin-1-yl)propan-1-one] | – | – | B1R antagonism, human [10 μM] % inhibition [1]: 98.39%; B1R antagonism, rat [10 μM] % inhibition [2]: 97.87%
8 | O=C(COCC1CCCN1S(=O)(=O)c1c(Cl)cccc1Cl)N1CCC(O)(c2ccccc2)CC1 (stereo not drawn) [Example 220, 2-((1-(2,6-dichlorophenylsulfonyl)pyrrolidin-2-yl)methoxy)-1-(4-hydroxy-4-phenylpiperidin-1-yl)ethanone] | 99 | 102 | –
9 | Cc1ccc(F)cc1S(=O)(=O)N(C)CCOCC(=O)N1CCC(O)(c2ccccn2)CC1 [Example 97, 5-fluoro-N-{2-[2-(4′-hydroxy-3′,4′,5′,6′-tetrahydro-2′H-[2,4′]bipyridinyl-1′-yl)-2-oxo-ethoxy]-ethyl}-2,N-dimethyl-phenylsulfonamide] | 35.4 | 43.2 | –
10 | Cc1cc(S(=O)(=O)N(C)CCOCC(=O)N2CCC(O)(Cc3ccccc3)CC2)c(C)cc1Cl [Example 153, N-(2-(2-(4-benzyl-4-hydroxypiperidin-1-yl)-2-oxoethoxy)ethyl)-4-chloro-N,2,5-trimethylphenylsulfonamide] | 71.8 | 69.1 | –
11 | CN(CCOCC(=O)N1CCC(O)(c2ccccn2)CC1)S(=O)(=O)c1ccc(F)cc1 [Example 56, 4-fluoro-N-{2-[2-(4′-hydroxy-3′,4′,5′,6′-tetrahydro-2′H-[2,4′]bipyridinyl-1′-yl)-2-oxo-ethoxy]-ethyl}-N-methyl-phenylsulfonamide] | -13.5 | -1.13 | –
12 | O=C(COCC1CCCCN1S(=O)(=O)c1cccc2ccccc12)N1CCC(O)(Cc2ccccc2)CC1 (stereo not drawn) [Example 64, 1-(4-benzyl-4-hydroxy-piperidin-1-yl)-2-[1-(naphthalene-1-sulfonyl)-piperidin-2-ylmethoxy]-ethanone] | 69.2 | 64.2 | –
13 | Cc1cc(S(=O)(=O)N(C)CCOCC(=O)N2CCC(O)(c3cccnc3)CC2)c(Cl)cc1Cl [Example 199, 2,4-dichloro-N-(2-(2-(4-hydroxy-4-(pyridin-3-yl)piperidin-1-yl)-2-oxoethoxy)ethyl)-N,5-dimethylphenylsulfonamide] | 105 | 98.2 | –
14 | O=C(COCC1Cc2ccccc2CN1S(=O)(=O)c1ccc(F)cc1)N1CCC(O)(c2ccccn2)CC1 (stereo not drawn) [Example 72, 2-[2-(4-fluoro-phenylsulfonyl)-1,2,3,4-tetrahydro-isoquinolin-3-ylmethoxy]-1-(4′-hydroxy-3′,4′,5′,6′-tetrahydro-2′H-[2,4′]bipyridinyl-1′-yl)-ethanone] | 3.33 | 18.7 | –
15 | COc1cc(C)c(S(=O)(=O)N2CCCC2COCC(=O)N2CCC(O)(c3ccc(Br)cc3)CC2)c(C)c1 (stereo not drawn) [Example 214, 1-(4-(4-bromophenyl)-4-hydroxypiperidin-1-yl)-2-((1-(4-methoxy-2,6-dimethylphenylsulfonyl)pyrrolidin-2-yl)methoxy)ethanone] | 97.9 | 101 | –
